Reference: article PMC2009384, “The carcinogenicity of polycyclic hydrocarbon epoxides in newborn mice” (British Journal of Cancer, 1975)

Tested on: newborn Swiss mice
Experiment: Experiment I: carcinogenicity in newborn mice, benz(a)anthracene vs its K region epoxide (s.c. injection, tumour incidence to 70-75 weeks)
From the text: Br. J. Cancer (1975) 31, 182 THE CARCINOGENICITY OF POLYCYCLIC HYDROCARBON EPOXIDES IN NEWBORN MICE P. L. GROVER, P. SIMS, B. C. V. MITCHLEY AND F. J. C. ROE From the Chester Beatty Research Institute, Institute of Cancer Research, Royal Cancer Hospital, Fulham Road, London, SW3 6JB Received 9 August 1974. […] THE HYPOTHESIS that the carcino- genicity of polycyclic hydrocarbons is associated with the formation of epoxide metabolites (Grover, Hewer and Sims, 1971, 1972; Keysell et al., 1973) is sup- ported by some experimental evidence but remains unproven. […] The epoxides can also act as alkylating agents (Grover and Sims, 1970) and as mutagens (Ames, Sims and Grover, 1972; Huberman et al., 1971; Cookson, Sims and Grover, 1971; Fahmy and Fahmy, 1973). […] The newborn mouse, which is susceptible to carcinogenic polycyclic hydrocarbons (Roe, Rowson and Salaman, 1961; Roe, Mitchley and Walters, 1963; Walters and Roe, 1964, 1966) can be considered as a convenient source of several types of rapidly dividing cells. Consequently we have tested the K region epoxides derived from phenanthrene, benz(a)anthracene, 7-methylbenz(a)anthracene, dibenz(a,h)- anthracene, chrysene and 3-methylchol- anthrene, together with some of the CARCINOGENICITY OF POLYCYCLIC HYDROCARBON EPOXIDES IN MICE 183 parent hydrocarbons, for carcinogenicity using newborn mice. This paper presents the results that were obtained in these experiments. MATERIALS AND METHODS The polycyclic hydrocarbon epoxides, phenanthrene 9,10-oxide, benz(a)anthracene 5,6-oxide, 7-methylbenz(a)anthracene 5,6- oxide, dibenz(a,h)anthracene 5,6-oxide, chry- sene 5,6-oxide and 3-methylcholanthrene 11,12-oxide were prepared from the parent hydrocarbons (Newman and Blum, 1964; Boyland and Sims, 1965; Sims 1966). Two experiments were undertaken fol- lowing similar protocols. For each experi- ment Swiss mice from a specific pathogen- free colony were time mated so as to produce a large number of litters over the course of 2 or 3 days. […] Test compounds were suspended in poly- ethylene glycol (PEG) 400 and injections of 0-02 ml of the suspension were given by introducing a 25 gauge hypodermic needle through the skin near the root of the tail and threading it subcutaneously to deliver the injected material in the interscapular region. Injections were given to every mouse on the first day or first 3 days of life. The details of treatments and numbers of mice of each sex in each group are shown in Table I (Experiment I) and Table II (Ex- periment II). Surviving mice were weaned when they w ere 21 days old. Thereafter, males and females w ere separated and housed 6 per cage in metal boxes. A mixture of sawdust and wood shavings was used as bedding. The mice were fed on a standard cubed diet (Formulation 86 from C. Holdman and Sons (Plow co Feeds), Byers Lane, South Godstone, Surrey) and water was given ad libitum. Mice were inspected daily, and at weekly intervals they were weighed and palpated for tumours and other lesions. […] The experiment was terminated when surviving mice were between 70 and 75 weeks old. A full routine post- mortem examination, which included disten- sion of the urinary bladder with fixative, was carried out. The number of lesions thought to be neoplasms and the size of the largest such lesion in each organ affected were recorded. All tissues with suspected neoplasms were fixed in Bouin's solution. Haematoxylin and eosin stained 5 µm paraffin wax sections were prepared and examined microscopically. RESULTS The results of the two experiments in terms of tumour incidence are sum- marized in […].

[1] = Groups A, B and C, 3 x 200, 100, 50 µg s.c.
[2] = females, 50 µg per treatment s.c. on Days 0, 1 and 2
[3] = females, 50 µg per treatment s.c. on Days 0, 1 and 2 in PEG 400
[4] = females, 100 µg per treatment s.c. on Days 0, 1 and 2
[5] = females, 100 µg per treatment s.c. on Days 0, 1 and 2 in PEG 400
[6] = females, 200 µg per treatment s.c. on Days 0, 1 and 2
[7] = females, 200 µg per treatment s.c. on Days 0, 1 and 2 in PEG 400
[8] = males, 50 µg per treatment s.c. on Days 0, 1 and 2
[9] = males, 50 µg per treatment s.c. on Days 0, 1 and 2 in PEG 400
[10] = males, 100 µg per treatment s.c. on Days 0, 1 and 2
[11] = males, 100 µg per treatment s.c. on Days 0, 1 and 2 in PEG 400
[12] = males, 200 µg per treatment s.c. on Days 0, 1 and 2
[13] = males, 200 µg per treatment s.c. on Days 0, 1 and 2 in PEG 400

c1ccc2cc3c(ccc4ccccc43)cc2c1 [Benz(a)anthracene, reference compound]
0: No. of mice examined at p.m. at termination of experiment (70th-75th week) with other tumours [2] | No. of mice examined at p.m. from 50th-70th week with liver tumours [2] | No. of mice examined at p.m. from 50th-70th week with other tumours [2] | No. of mice examined at p.m. at termination of experiment (70th-75th week) with liver tumours [4] | No. of mice examined at p.m. at termination of experiment (70th-75th week) with multiple liver tumours [4] | No. of mice examined at p.m. at termination of experiment (70th-75th week) with other tumours [4] | No. of mice examined at p.m. from 50th-70th week with liver tumours [4] | No. of mice examined at p.m. from 50th-70th week with other tumours [4] | No. of mice examined at p.m. from 50th-70th week with liver tumours [6] | No. of mice examined at p.m. from 50th-70th week with lung tumours [6] | No. of mice examined at p.m. from 50th-70th week with other tumours [6] | No. of mice examined at p.m. at termination of experiment (70th-75th week) with other tumours [8] | No. of mice examined at p.m. from 50th-70th week with other tumours [8] | No. of mice examined at p.m. from 50th-70th week with other tumours [10] | No. of mice examined at p.m. at termination of experiment (70th-75th week) with other tumours [12] | No. of mice examined at p.m. from 50th-70th week with other tumours [12]
11: No. of mice examined at p.m. at termination of experiment (70th-75th week) with multiple liver tumours [10]
2: No. of mice examined at p.m. at termination of experiment (70th-75th week) with liver tumours [2] | No. of mice examined at p.m. at termination of experiment (70th-75th week) with multiple lung tumours [4] | No. of mice examined at p.m. from 50th-70th week with lung tumours [4] | No. of mice examined at p.m. at termination of experiment (70th-75th week) with liver tumours [6] | No. of mice examined at p.m. at termination of experiment (70th-75th week) with multiple lung tumours [8]
dose related effect: effect on the incidence of liver tumours in male mice [1] | effect on the incidence of lung tumours in mice of both sexes [1]
21: No. of survivors at 70 weeks [3]
9: No. of mice examined at p.m. at termination of experiment (70th-75th week) with liver tumours [8]
25: No. of survivors at 50 weeks [3] | No. of survivors at 70 weeks [9] | No. of survivors at 50 weeks [11]
29: No. of survivors at 50 weeks [9]
15: No. of mice examined at p.m. at termination of experiment (70th-75th week) with liver tumours [10] | No. of mice examined at p.m. at termination of experiment (70th-75th week) with liver tumours [12] | No. of mice examined at p.m. at termination of experiment (70th-75th week) with multiple liver tumours [12] | No. of survivors at 70 weeks [13]
7: No. of mice examined at p.m. at termination of experiment (70th-75th week) with lung tumours [2]
5: No. of mice examined at p.m. at termination of experiment (70th-75th week) with lung tumours [4] | No. of mice examined at p.m. at termination of experiment (70th-75th week) with lung tumours [8] | No. of mice examined at p.m. at termination of experiment (70th-75th week) with multiple liver tumours [8] | No. of mice examined at p.m. at termination of experiment (70th-75th week) with lung tumours [10]
17: No. of survivors at 50 weeks [5]
13: No. of survivors at 70 weeks [5]
1: No. of mice examined at p.m. at termination of experiment (70th-75th week) with multiple liver tumours [2] | No. of mice examined at p.m. from 50th-70th week with lung tumours [2] | No. of mice examined at p.m. at termination of experiment (70th-75th week) with multiple liver tumours [6] | No. of mice examined at p.m. at termination of experiment (70th-75th week) with other tumours [6] | No. of mice examined at p.m. from 50th-70th week with lung tumours [8] | No. of mice examined at p.m. at termination of experiment (70th-75th week) with other tumours [10] | No. of mice examined at p.m. from 50th-70th week with lung tumours [10] | No. of mice examined at p.m. from 50th-70th week with liver tumours [12] | No. of mice examined at p.m. from 50th-70th week with lung tumours [12]
18: No. of survivors at 50 weeks [7] | No. of survivors at 70 weeks [7] | No. of survivors at 50 weeks [13]
10: No. of mice examined at p.m. at termination of experiment (70th-75th week) with lung tumours [6] | No. of mice examined at p.m. at termination of experiment (70th-75th week) with multiple lung tumours [6]
19: No. of survivors at 70 weeks [11]
3: No. of mice examined at p.m. at termination of experiment (70th-75th week) with multiple lung tumours [2] | No. of mice examined at p.m. from 50th-70th week with liver tumours [8] | No. of mice examined at p.m. at termination of experiment (70th-75th week) with multiple lung tumours [10]
4: No. of mice examined at p.m. from 50th-70th week with liver tumours [10] | No. of mice examined at p.m. at termination of experiment (70th-75th week) with lung tumours [12] | No. of mice examined at p.m. at termination of experiment (70th-75th week) with multiple lung tumours [12]
